# Data from paper PMC10463376, “Design, synthesis, in vitro anticancer, molecular docking and SAR studies of new series of pyrrolo[2,3-d]pyrimidine derivatives” (BMC Chemistry, 2023).
# Experiments:
# Assay type in all cases: cell-based, human
# [1] = system: Bcl2; assay: ELISA Bcl2 in A549 cells; details: control 16.21
# Text: (§1) Elisa assay was used to determine the concentrations of Human caspases-3, -8, Bax, and Bcl2 in PACA2- and A549-treated cells. Also, the concentrations of caspase-8, Bax, and Bcl2 in MCF7-treated cells were detected. The procedures were followed up according to the instructions described in the following kits; Invitrogen human Caspase-3 Elisa Kit, Catalog KHO1091, DRG® human Caspase-8 ELISA Kit, Catalog (EIA-4863), Human Bax ELISA Kit (ab199080) and Human Bcl-2 ELISA Kit (ab119506) respectively. Shortly, the protocol described in the above kits was as followed; at the beginning, all the reagents, samples and standards were prepared. 100 μl of samples or standard were micro pipetted to each well of micro-well strip and kept at room temperature for 2 h. After washing the micro-well strips three times with washing buffer, the prepared antibody (anti-rabbit-IgG-HRP) at a concentration of 100 μl was added to each well at room temperature for 1 h. Then, the micro-well strips were washed again three times. Afterward, the prepared tetramethyl-benzidine (TMB) solution (100 μl) was added to the micro-well strips and kept for 10 min. […] The absorbance of all samples was measured at a wavelength of 460 nm and compared to that of the standard. Curve fitting software was used to plot a standard curve and the concentrations for the unknown samples were measured from the standard curve.
# [2] = system: caspase 8; assay: ELISA caspase 8 in A549 cells; details: control 5.83
# Text: as §1
# [3] = system: caspase 3; assay: ELISA caspase 3 in A549 cells; details: control 6.32
# Text: as §1
# [4] = system: IL-8; assay: RT-qPCR IL-8 mRNA in A549; details: A549, compared with Dox.
# Experimental: (§2) All of the extractions were conducted on ice with ice-cold reagents. Total RNA from the different cell lines was isolated using Trizol (Invitrogen; Life Technologies, USA) according to the method of Sthoeger et al.. The 260:280 ratios were measured to determine RNA quality after the isolation method was completed according to the manufacturer’s instructions. A high-capacity cDNA reverse transcription kit was used to produce complementary DNA (cDNA) (Applied Biosystems, USA). […] The relative gene expression method (i.e., ΔΔCT) was used to analyze the real-time PCR data, as explained in Applied Biosystem User Bulletin No. 2. Each sample and gene were normalized using the β-actin gene.
# [5] = system: lung cell line (A549); assay: DNA fragmentation assay, A549; details: A549, IC50, 24 h, vs negative control (P < 0.01); Dox. higher than 4b
# Experimental: The DNA fragmentation assay in a pancreatic cell line (Paca2), breast cancer cell lines (MCF-7) and lung cell line (A549) was performed in concordance with the premises established by Yawata with some modifications. Briefly, after 24 h of exposure of Paca2, MCF-7 and A549 cancer cell lines to the prepared compounds in different Petri dishes (60 × 15 mm, Greiner), the cells were suspended and homogenized in 1 ml of medium and then centrifuged for 10 min at 900 rpm. The genomic DNA was extracted as shown in Yawata. About 1 × 10^6 cells of each tested cancer cell line were treated with the IC50 values of the tested compounds. All the cells were collected via trypsinization and washed with Dulbecco`s Phosphate Buffered Saline. Then, the cells were treated with the lysis buffer containing 5 mM ethylenediaminetetraacetic acid (EDTA), 10 mM Tris (pH 7.4), 0.5% Triton X-100 and 150 mM NaCl for 35 min on ice. […] Finally, the percentage of fragmented DNA was determined by performing gel electrophoresis using 2% agarose gel containing 0.1 μg/ml ethidium bromide.
# Pancreatic cancer cell line (Paca2), breast cancer cell line (MCF-7) and lung cancer cell line (A549) were used to determine the percentage of DNA fragmentation after the treatment with IC50 of the tested compounds. […] The percentage of fragmented DNA was measured from the absorbance reading at 600 nm wavelength using the following formula: […]
# [6] = system: CDK4; assay: RT-qPCR CDK4 mRNA in A549; details: A549, compared with Dox.
# Experimental: as §2
# [7] = system: Bcl2; assay: ELISA Bcl2 in Paca2 cells; details: control 16.23
# Text: as §1
# [8] = system: Paca2 cells; assay: Annexin V-FITC/PI apoptosis flow cytometry, Paca2; details: Paca2, 24 h, IC50
# Experimental: The percentage of apoptotic cells was detected by using Annexin V-FITC kit catalog number (#K101-25). About 2X10^6 of MCF7 and Paca2 cells were washed in 500 µl of 1 × PBS. Then, the cells were centrifuged and the supernatant was discarded. The cells pellet were re-suspended in the annexin V incubation reagent. The annexin V incubation reagent contained 10 μl binding buffer (10 ×), 10 μl propidium iodide, 1 μl annexin V-FITC, and 79 μl deionized water. The cells were incubated in 100 μl annexin V incubation reagent for 15 min in the dark at room temperature. Finally, the apoptotic cell percentage was detected by flow cytometry using the FITC signal detector (usually FL-1) and PI staining by the phycoerythrin emission signal detector (usually FL-2).
# [9] = system: BAX; assay: ELISA BAX in Paca2 cells; details: control 3.86
# Text: as §1
# [10] = system: caspase 3; assay: ELISA caspase 3 in Paca2 cells; details: control 5.34
# Text: as §1
# [11] = system: caspase 8; assay: ELISA caspase 8 in Paca2 cells; details: control 4.85
# Text: as §1
Structure (SMILES),Bcl2 level (ELISA) [1],caspase 8 level (ELISA) [2],caspase 3 level (ELISA) [3],IL-8 mRNA level [4],DNA fragmentation value [5],CDK4 mRNA level [6],Bcl2 concentration (ELISA) [7],percentage of late apoptotic cells (Q1-UR) ([8]; control 0.54%),percentage of necrotic cells (Q1-UL) ([8]; control 2.27%),percentage of early apoptotic cells (Q1-LR) ([8]; control 4.46%),BAX level (ELISA) [9],caspase 3 level (ELISA) [10],caspase 8 level (ELISA) [11]
"COc1ccc(-c2c(Cl)n(-c3ccc(Cl)cc3Cl)c3ncnc(Cl)c23)cc1OC [Compound 4b, 4,6-dichloro-7-(2,4-dichlorophenyl)-5-(3,4-dimethoxyphenyl)-7H-pyrrolo[2,3-d]pyrimidine]",9.4 pg/mL,16.84 pg/mL,12.12 pg/mL,down-regulated,increased significantly,down-regulated,,,,,,,
"CN1CCN(c2nc(C(Cl)(Cl)Cl)nc3c2c(-c2ccc(Br)cc2)c(Cl)n3-c2ccc(Cl)cc2Cl)CC1 [Compound 17, 5-(4-bromophenyl)-6-chloro-7-(2,4-dichlorophenyl)-4-(4-methylpiperazin-1-yl)-2-(trichloromethyl)-7H-pyrrolo[2,3-d]pyrimidine]",,,,,,,6.26 pg/mL,0.86%,6.17%,4.74%,11.85 pg/mL,9.14 pg/mL,13.86 pg/mL
